Ki data for 17 compounds are collected here from ChEMBL document CHEMBL1157469, “Characterization of the drug binding specificity of rat liver fatty acid binding protein” (J Med Chem, 2008).

Assay [1] has as its target T1, Fatty acid-binding protein, liver (Rattus norvegicus, UniProt P02692).
T1 sequence (P02692 whole entry): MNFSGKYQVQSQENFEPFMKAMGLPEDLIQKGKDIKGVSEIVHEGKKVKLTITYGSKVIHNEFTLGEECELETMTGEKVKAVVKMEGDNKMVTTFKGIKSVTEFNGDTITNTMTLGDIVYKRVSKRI
The experiment in a line: Displacement of 1-anilinonaphthalene-8-sulphonic acid from rat recombinant L-FABP high binding affinity site expressed in Escherichia coli BL21 by competitive fluorescence displacement assay.

Assay [2] concerns the target T1, Fatty acid-binding protein, liver. Nature of the assay: Displacement of 1-anilinonaphthalene-8-sulphonic acid from rat recombinant L-FABP low binding affinity site expressed in Escherichia coli BL21 by competitive fluorescence displacement assay.
The target of assay [3] is T2, Fatty acid-binding protein, intestinal (Homo sapiens, UniProt P12104).
T2 sequence (P12104 whole entry): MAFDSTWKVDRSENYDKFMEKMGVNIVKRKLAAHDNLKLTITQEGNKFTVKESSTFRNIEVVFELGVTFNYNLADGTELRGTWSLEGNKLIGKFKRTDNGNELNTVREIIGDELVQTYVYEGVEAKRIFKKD
The experiment in a line: Displacement of 1-anilinonaphthalene-8-sulphonic acid from I-FABP.

Molecules are shown by their SMILES.

Broadly, the Ki is a measure of affinity in units of concentration, obtained from inhibition or displacement. Turning to `CC(=O)Oc1ccccc1C(=O)O` [ASPIRIN], the results for the Ki in assay [1] and in assay [2] were 348 µM and 3780 µM, respectively.

Turning to `CC(C)(Oc1ccc(CCNC(=O)c2ccc(Cl)cc2)cc1)C(=O)O` [BEZAFIBRATE], the Ki in assay [3] is 33 µM; in assay [2] (read-out: Ki), 44.4 µM.

As to `CCOC(=O)C(C)(C)Oc1ccc(Cl)cc1` [CLOFIBRATE], the Ki in assay [1] (read-out: Ki) came out at 6.92 µM.

On to `C[C@@H]1C[C@H]2[C@@H]3CCC4=CC(=O)C=C[C@]4(C)[C@@]3(F)[C@@H](O)C[C@]2(C)[C@@]1(O)C(=O)CO` [DEXAMETHASONE], for which the Ki in assay [1] (read-out: Ki) amounted to 22.1 µM; in assay [2] (read-out: Ki) it was 41.3 µM.

Turning to `O=C(O)Cc1ccccc1Nc1c(Cl)cccc1Cl` [DICLOFENAC], the Ki in assay [1] (read-out: Ki) is 3.22 µM; in assay [2] (read-out: Ki), 35.4 µM.

`CC(C)OC(=O)C(C)(C)Oc1ccc(C(=O)c2ccc(Cl)cc2)cc1` [FENOFIBRATE]: the values for the Ki in assay [1] (read-out: Ki) and in assay [2] (read-out: Ki) were 0.024 µM and 0.405 µM, respectively.

On to `CC(C)(Oc1ccc(C(=O)c2ccc(Cl)cc2)cc1)C(=O)O` [FENOFIBRIC ACID], for which the values for the Ki in assay [1] (read-out: Ki), in assay [3] and in assay [2] (read-out: Ki) were 0.334 µM, 1 µM and 27.5 µM, respectively.

Turning to `CC(C(=O)O)c1ccc(-c2ccccc2)c(F)c1` (stereo not given) [FLURBIPROFEN], the Ki in assay [1] (read-out: Ki) was 1.18 µM; in assay [3] it was 26 µM; in assay [2] (read-out: Ki), 222 µM.

Turning to `Cc1ccc(C)c(OCCCC(C)(C)C(=O)O)c1` [GEMFIBROZIL], the inhibition constant Ki in assay [1] (read-out: Ki) turned out to be 1.86 µM; in assay [2] (read-out: Ki), 179 µM.

Consider `CC(C)Cc1ccc(C(C)C(=O)O)cc1` (stereo not given) [IBUPROFEN], for which the results for the Ki in assay [1] (read-out: Ki) and in assay [2] (read-out: Ki) were 47.6 µM and 448 µM, respectively.

Turning to `CC(C(=O)O)c1ccc(N2Cc3ccccc3C2=O)cc1` (stereo not given) [INDOPROFEN], the results for the Ki in assay [1] (read-out: Ki) and in assay [2] (read-out: Ki) were 1.27 µM and 161 µM, respectively.

Consider `O=C(c1ccccc1)c1ccc2n1CCC2C(=O)O` (stereo not given) [KETOROLAC], for which the Ki in assay [1] (read-out: Ki) stood at 11.6 µM; in assay [2] (read-out: Ki), 119 µM.

Consider `O=C1Nc2ccc(Cl)cc2C(c2ccccc2Cl)=NC1O` (stereo not given) [LORAZEPAM], for which the Ki came out at 12.9 µM in assay [1] (read-out: Ki) and 140 µM in assay [2] (read-out: Ki).

Regarding `Cc1ccc(Cl)c(Nc2ccccc2C(=O)O)c1Cl` [MECLOFENAMIC ACID], the figures for the Ki in assay [1] (read-out: Ki), in assay [3] and in assay [2] (read-out: Ki) were 0.379 µM, 8.9 µM and 0.256 µM, respectively.

On to `CC(C)(C)NCC(O)COc1cccc2c1CC(O)C(O)C2` (stereo not given) [NADOLOL], for which the Ki in assay [1] (read-out: Ki) was 2310 µM.

Take `C[C@]12C=CC(=O)C=C1CC[C@@H]1[C@@H]2[C@@H](O)C[C@@]2(C)[C@H]1CC[C@]2(O)C(=O)CO` [PREDNISOLONE]: the Ki in assay [1] (read-out: Ki) was 2.66 µM; in assay [2] (read-out: Ki) it was 101 µM.

As for `CC(=O)[C@H]1CC[C@H]2[C@@H]3CCC4=CC(=O)CC[C@]4(C)[C@H]3CC[C@]12C` [PROGESTERONE], the Ki in assay [1] (read-out: Ki) was determined as 0.027 µM; in assay [3] it was 20 µM.
